Results published in patent US6630488B1, “Quinolizinones as integrin inhibitors” (Biochem Pharma, Inc., priority 1998, dated 2003).
Structures can show the parent of a compound that is named as a salt.

How the values were obtained:
placental αvβ3 = target: T1, placental αvβ3 (Homo sapiens, UniProt P05106+P06756); experiment: Fibrinogen binding to immobilized αvβ3; conditions: biotinylated-fibrinogen 10 nM, immobilized placental αvβ3; read-out: IC50 values for the fibrinogen binding assay αvβ3
T1 construct: purified active GP IIb-IIIa (Calbiochem) or olacental αvβ3 at 0.5 μg/ml; from tissue; host or cells: placenta
Protocol: (§1) Nonbound fibrinogen was removed by five washes with binding buffer. Avidin conjugated to alkaline phosphatase (Sigma), diluted in binding buffer, was added and incubated for two hours at 37° C. The plates were washed five times with binding buffer, and after addition of the substrate PNPP (Pierce), the enzyme activity was measured by the absorbance at 405 nm.

GP IIb-IIIa (αIIbβ3) = target: T2, GP IIb-IIIa (αIIbβ3) (Homo sapiens, UniProt P05106+P08514); experiment: Fibrinogen binding to immobilized GP IIb-IIIa (αIIbβ3); conditions: biotinylated-fibrinogen 10 nM, immobilized GP IIb-IIIa; read-out: IC50 values for the fibrinogen binding assay αIIbβ3
T2 construct: purchased Calbiochem
Protocol: as §1

T1 sequence (P06756 31-889 limits assumed): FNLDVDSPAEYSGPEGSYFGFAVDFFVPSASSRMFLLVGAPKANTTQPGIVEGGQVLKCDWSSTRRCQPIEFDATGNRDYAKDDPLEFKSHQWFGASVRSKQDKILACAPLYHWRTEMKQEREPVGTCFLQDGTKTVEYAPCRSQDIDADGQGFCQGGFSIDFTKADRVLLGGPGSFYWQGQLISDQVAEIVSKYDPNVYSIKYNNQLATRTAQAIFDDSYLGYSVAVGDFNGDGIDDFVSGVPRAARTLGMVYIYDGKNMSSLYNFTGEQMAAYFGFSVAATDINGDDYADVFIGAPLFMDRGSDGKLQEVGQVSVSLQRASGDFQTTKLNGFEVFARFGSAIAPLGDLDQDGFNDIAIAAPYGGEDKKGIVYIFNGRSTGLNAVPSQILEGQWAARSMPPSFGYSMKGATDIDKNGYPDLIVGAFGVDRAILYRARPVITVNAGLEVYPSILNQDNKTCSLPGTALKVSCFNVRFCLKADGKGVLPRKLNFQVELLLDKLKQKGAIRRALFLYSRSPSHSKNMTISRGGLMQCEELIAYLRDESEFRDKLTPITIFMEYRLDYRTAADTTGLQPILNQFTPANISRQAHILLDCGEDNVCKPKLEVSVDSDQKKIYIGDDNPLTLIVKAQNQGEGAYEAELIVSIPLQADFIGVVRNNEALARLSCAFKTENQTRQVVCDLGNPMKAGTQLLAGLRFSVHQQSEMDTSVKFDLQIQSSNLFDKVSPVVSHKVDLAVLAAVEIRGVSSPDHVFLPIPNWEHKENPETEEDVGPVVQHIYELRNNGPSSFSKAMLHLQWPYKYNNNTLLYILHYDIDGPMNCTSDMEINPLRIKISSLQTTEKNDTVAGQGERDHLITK
T1 sequence (P06756 891-1048 partner limits assumed): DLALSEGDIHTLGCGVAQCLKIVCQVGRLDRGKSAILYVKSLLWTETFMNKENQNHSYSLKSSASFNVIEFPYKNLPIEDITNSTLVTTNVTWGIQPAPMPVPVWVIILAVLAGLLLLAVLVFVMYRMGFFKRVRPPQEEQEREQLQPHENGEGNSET
T1 sequence (P05106 27-788): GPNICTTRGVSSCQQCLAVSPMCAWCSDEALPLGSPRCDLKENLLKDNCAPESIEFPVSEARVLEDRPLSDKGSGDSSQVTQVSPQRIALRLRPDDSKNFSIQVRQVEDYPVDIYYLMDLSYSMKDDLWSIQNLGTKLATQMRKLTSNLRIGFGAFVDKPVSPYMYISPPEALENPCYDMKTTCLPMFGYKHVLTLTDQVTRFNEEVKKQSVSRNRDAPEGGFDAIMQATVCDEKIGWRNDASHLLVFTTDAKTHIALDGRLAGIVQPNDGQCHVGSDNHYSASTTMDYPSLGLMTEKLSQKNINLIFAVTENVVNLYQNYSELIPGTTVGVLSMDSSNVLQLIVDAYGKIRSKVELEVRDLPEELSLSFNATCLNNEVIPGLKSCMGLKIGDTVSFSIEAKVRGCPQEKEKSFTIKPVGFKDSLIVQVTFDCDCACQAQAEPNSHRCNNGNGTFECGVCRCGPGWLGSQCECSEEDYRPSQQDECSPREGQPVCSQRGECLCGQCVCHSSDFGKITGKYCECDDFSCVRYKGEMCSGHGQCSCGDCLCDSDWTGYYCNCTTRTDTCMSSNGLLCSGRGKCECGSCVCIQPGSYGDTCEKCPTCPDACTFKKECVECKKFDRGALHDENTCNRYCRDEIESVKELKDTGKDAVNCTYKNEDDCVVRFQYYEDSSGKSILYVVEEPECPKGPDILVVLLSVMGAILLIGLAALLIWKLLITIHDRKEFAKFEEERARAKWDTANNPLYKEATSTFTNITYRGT
T2 sequence (P08514 32-887 limits assumed): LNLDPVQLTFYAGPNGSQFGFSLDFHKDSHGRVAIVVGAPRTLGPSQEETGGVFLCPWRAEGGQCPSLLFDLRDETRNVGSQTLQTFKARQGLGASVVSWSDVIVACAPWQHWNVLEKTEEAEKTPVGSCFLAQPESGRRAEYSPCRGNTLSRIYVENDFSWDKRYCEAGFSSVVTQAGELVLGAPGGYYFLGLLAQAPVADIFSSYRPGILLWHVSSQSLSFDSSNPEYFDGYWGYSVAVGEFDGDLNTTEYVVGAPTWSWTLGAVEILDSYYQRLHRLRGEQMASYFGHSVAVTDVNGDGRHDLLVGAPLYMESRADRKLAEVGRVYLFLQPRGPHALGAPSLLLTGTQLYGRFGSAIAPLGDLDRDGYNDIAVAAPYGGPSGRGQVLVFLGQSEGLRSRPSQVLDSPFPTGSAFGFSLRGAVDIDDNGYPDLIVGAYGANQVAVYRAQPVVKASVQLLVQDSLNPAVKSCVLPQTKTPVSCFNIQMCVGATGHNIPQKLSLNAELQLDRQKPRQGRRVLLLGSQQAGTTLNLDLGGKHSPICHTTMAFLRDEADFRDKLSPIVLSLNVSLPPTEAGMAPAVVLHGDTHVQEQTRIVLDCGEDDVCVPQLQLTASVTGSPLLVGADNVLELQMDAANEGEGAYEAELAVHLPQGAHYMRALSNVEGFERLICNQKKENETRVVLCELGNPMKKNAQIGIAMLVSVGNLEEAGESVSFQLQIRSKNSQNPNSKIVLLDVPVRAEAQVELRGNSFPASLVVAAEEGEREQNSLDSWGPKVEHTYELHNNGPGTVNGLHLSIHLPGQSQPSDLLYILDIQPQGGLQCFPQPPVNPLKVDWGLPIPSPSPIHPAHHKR
T2 sequence (P08514 891-1039 partner limits assumed): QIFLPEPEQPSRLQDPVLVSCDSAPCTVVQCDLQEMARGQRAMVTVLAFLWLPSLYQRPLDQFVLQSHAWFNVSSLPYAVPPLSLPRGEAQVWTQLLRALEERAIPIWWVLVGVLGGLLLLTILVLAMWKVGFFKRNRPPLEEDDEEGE
T2 sequence (P05106 27-788): as the sequence (P05106 27-788) above

| Compound | IC50 (placental αvβ3) [nM] | IC50 (GP IIb-IIIa (αIIbβ3)) [nM] |
| --- | --- | --- |
| NCCCOc1ccc2cc(C(=O)NC[C@H](Nc3ncccn3)C(=O)O)cc(=O)n2c1 (stereo in doubt) [Compound XXI, 3-{[7-(3-Amino-propoxy)-4-oxo-4H-quinolizine-2 carbonyl]-amino}-2-(pyrimidin-2-ylamino)-propionic Acid Hydrochloride] | 14000 | 74 |
| N=C(N)NCCCOc1ccc2ccc(NC(=O)NC(CC(=O)O)c3cccnc3)c(=O)n2c1 (racemic) [Compound VIII, (+/−)-3-{3-[7-(3-Guanidino-propoxy)-4-oxo-4H-quinolizin-3-yl]-ureido}-3-pyridin-3-yl-propionic Acid] | 1200 | 3500 |
| N=C(N)NCc1ccc2cc(C(=O)NC[C@H](NC(=O)OCc3ccccc3)C(=O)O)cc(=O)n2c1 [Compound XLVIII, (S)-2-Benzyloxycarbonylamino-3-[(7-guanidinomethyl-4-oxo-4H-quinolizine-2-carbonyl)-amino]-propionic acid trifluoroacetic acid salt] | 4.9 | 2600 |
| N=C(N)NC1CCC(Nc2ccn3c(=O)c(C(=O)NC(CC(=O)O)c4ccccc4)ccc3c2)CC1 (racemic) [Compound XLI, (+/−)-3-{[8-(4-Guanidino-cyclohexylamino)-4-oxo-4H-quinolizine-3-carbonyl]-amino}-3-phenyl-propionic Acid Trifluoroacetic Acid Salt] | 17000 | 230 |
| CNC(=O)NCCCOc1ccc2cc(C(=O)NC[C@H](NS(=O)(=O)c3ccccc3)C(=O)O)cc(=O)n2c1 [Compound XII, (S)-2-Benzenesulfonylamino-3-({7-[3-(3-methyl-ureido)-propoxy]-4-oxo-4H-quinolizine-2-carbonyl}-amino)-propionic Acid] | 1100 | 790 |
| N=C(N)NCc1ccc2cc(C(=O)NC(CC(=O)O)c3cccnc3)cc(=O)n2c1 (racemic) [Compound XLIII, (+/−)-3-[(7-guanidinomethyl-4-oxo-4H-quinolizine-2-carbonyl]-amino)-3-pyridin-3-yl-propionic acid bis-trifluoroacetic acid salt] | 720 | 14800 |
| NCCCOc1ccc2cc(C(=O)O)cc(=O)n2c1 [Compound XIII, 7-(3-Amino-propoxy)-4-oxo-4H-quinolizine-2-carboxylic Acid Trifluoroacetic Acid Salt] | > 100000 | 5300 |
| NCCCOc1ccc2ccc(NC(=O)NC[C@H](NS(=O)(=O)c3ccccc3)C(=O)O)c(=O)n2c1 [Compound VII, (S)-3-{3-[7-(3-Amino-propoxy)-4-oxo-4H-quinolizin-3-yl]-ureido}-2-Benzenesulfonylamino-propionic Acid] | 92000 | 1.8 |
| NCCCCOc1ccc2cc(C(=O)NC[C@H](NS(=O)(=O)c3ccccc3)C(=O)O)cc(=O)n2c1 [Compound XVII, (S)-3-{[7-(4-Amino-butoxy)-4-oxo-4H-quinolizine-2-carbonyl]-amino}-2-benzenesulfonylamino-propionic Acid Trifluoroacetic Acid Salt] | 5100 | 0.17 |
| O=C(NC[C@H](NS(=O)(=O)c1ccccc1)C(=O)O)c1cc(=O)n2cc(CNc3ncccn3)ccc2c1 [Compound XLVI, (S)-2-Benzenesulfonylamino-3-([4-oxo-7-(pyrimidin-2-ylaminomethyl)-4H-quinolizine-2-carbonyl]-amino)-propionic acid trifluoroacetic acid salt] | 290 | 3500 |
| NCCCOc1ccc2ccc(C(=O)NC[C@H](NS(=O)(=O)c3ccccc3)C(=O)O)c(=O)n2c1 [Compound III, (S)-3-{[7-(3-Amino-propoxy)-4-oxo-4H-quinolizine-3-carbonyl]-amino}-2-benzenesulfonylamino-propionic Acid Trifluoroacetic Acid Salt] | 96000 | 520 |
| NCCCCOc1ccn2c(=O)cc(C(=O)NC[C@H](NS(=O)(=O)c3ccccc3)C(=O)O)cc2c1 [Compound XXXII, (S)-3-{[8-(4-Amino-butoxy)-4-oxo-4H-quinolizine-2-carbonyl]-amino}-2-benzenesulfonylamino-propionic Acid Trifluoroacetic Acid Salt] | 12000 | 5.5 |
| N=C(N)NCCCCOc1ccc2cc(C(=O)NC[C@H](NS(=O)(=O)c3ccccc3)C(=O)O)cc(=O)n2c1 [Compound XVIII, (S)-2-Benzenesulfonylamino-3-{[7-(4-guanidino-butoxy)-4-oxo-4H-quinolizine-2-carbonyl]-amino}-propionic Acid Hydrochloride] | 2200 | 5.3 |
| O=C(O)CC(NC(=O)c1ccc2cc(NCCSC(=S)Nc3cccnc3)ccn2c1=O)c1ccccc1 (racemic) [Compound XXXVIII, (+/−)-3-({4-Oxo-8-[2-(pyridin-3-ylthiocarbamoylsulfanyl)-ethylamino]4H-quinolizine-3-carbonyl}-amino)-3-phenyl-propionic acid trifluoroacetic acid salt] | 13000 | 45 |
| NCCCCCOc1ccn2c(=O)cc(C(=O)NC[C@H](NS(=O)(=O)c3ccccc3)C(=O)O)cc2c1 [Compound XXXIV, (S)-3-{[8-(S-Amino-pentyloxy)-4-oxo-4H-quinolizine-2-carbonyl]-amino}-2-benzenesulfonylamino-propionic Acid Trifluoroacetic Acid Salt] | 17000 | 16 |
| NCc1ccc2cc(C(=O)NC[C@H](NS(=O)(=O)c3ccccc3)C(=O)O)cc(=O)n2c1 (stereo in doubt) [Compound XXVI, 3-[(7-Aminomethyl-4-oxo-4H-quinolizine-2-carbonyl)-amino]-2-benzenesulfonylamino-propionic Acid Trifluoroacetic Acid Salt] | 19 | 440 |
| CN([C@@H](CNC(=O)c1cc(=O)n2cc(OCCCNC(=N)N)ccc2c1)C(=O)O)S(=O)(=O)c1ccccc1 [Compound XXIV, (S)-2-(Benzenesulfonyl-methyl-amino)-3-{[7-(3-guanidino-propoxy)-4-oxo-4H-quinolizine-2-carbonyl]-amino}-propionic Acid Hydrochloride] | 58000 | 1300 |
| NCCOc1ccc2cc(C(=O)NC[C@H](NS(=O)(=O)c3ccccc3)C(=O)O)cc(=O)n2c1 [Compound XIX, (S)-3-{[7-(2-Amino-ethoxy)-4-oxo-4H-quinolizine-2-carbonyl]-amino}-2-benzenesulfonylamino-propionic Acid Trifluoroacetic Acid Salt] | 2000 | 29 |
| NCCCOc1ccn2c(=O)cc(C(=O)NC[C@H](NS(=O)(=O)c3ccccc3)C(=O)O)cc2c1 [Compound XXX, (S)-3-{[8-(3-Amino-propoxy)-4-oxo-4H-quinolizine-2-carbonyl]-amino}-2-benzenesulfonylamino-propionic Acid Trifluoroacetic Acid Salt] | 17000 | 110 |
| O=C(O)CC(NC(=O)c1ccc2ccc(OCCCNC(=O)NCc3ccccc3)cn2c1=O)c1ccccc1 (racemic) [Compound X] | 67000 | 29000 |
| N=C(N)NCCCCCOc1ccn2c(=O)cc(C(=O)NC[C@H](NS(=O)(=O)c3ccccc3)C(=O)O)cc2c1 [Compound XXXV, (S)2-Benzenesulfonylamino-3-{[8-(5-guanidino-pentyloxy)-4-oxo-4H-quinolizine-2-carbonyl]-amino}propionic Acid Hydrochloride] | 15000 | 1500 |
| CN([C@@H](CNC(=O)c1cc(=O)n2cc(OCCCN)ccc2c1)C(=O)O)S(=O)(=O)c1ccccc1 [Compound XXIII, (S)-3-{[7-(3-Amino-propoxy)-4-oxo-4H-quinolizine-2-carbonyl]-amino}-2-(benzenesulfonyl-methyl-amino)-propionic Acid Trifluoroacetic Acid Salt] | > 100000 | 820 |
| NCCCOc1ccc2cc(C(=O)NC[C@H](NS(=O)(=O)c3ccccc3)C(=O)O)cc(=O)n2c1 [Compound XIV, (S)-3-{[7-(3-Amino-propoxy)-4-oxo-4H-quinolizine-2-carbonyl]-amino}-2-benzenesulfonylamino-propionic Acid Trifluoroacetic Acid Salt] | 17000 | 0.38 |
| NCC1CCc2cc(C(=O)NCC(NS(=O)(=O)c3ccccc3)C(=O)O)cc(=O)n2C1 [Compound XXVIII, (2S, 7R) and (2S, 7S)-3-[(7-Aminomethyl-4-oxo-6,7,8,9-tetrahydro-4H-quinolizine-2-carbonyl)-amino]-2-benzenesulfonylamino-propionic Acid Trifluoroacetic Acid Salt] | 370 | 100 |
| O=C(NC[C@H](NS(=O)(=O)c1ccccc1)C(=O)O)c1cc(=O)n2cc(OCCCNc3ncccn3)ccc2c1 [Compound XXV, (S)-2-Benzenesulfonylamino-3-({4-oxo-7-[3-(pyrimidin-2-ylamino)-propoxy]-4H-quinolizine-2-carbonyl}-amino)-propionic Acid] | 15000 | 1250 |
| O=C(NCc1ccc2cc(C(=O)NC[C@H](NS(=O)(=O)c3ccccc3)C(=O)O)cc(=O)n2c1)OCc1ccccc1 [Compound XLV, (S)-2-Benzenesulfonylamino-3-([(7-benzyloxycarbonylamino-methyl)-4-oxo-4H-quinolizine-2-carbonyl]-amino)-propionic acid] | 910 | 850 |
| N=C(N)NCc1ccc2cc(C(=O)NC(CC(=O)O)c3cc(Cl)cc(Cl)c3)cc(=O)n2c1 (racemic) [Compound XLII, (+/−)-3-(3,5-Dichlorophenyl)-3-((7-guanidinomethyl-4-oxo-4H-quinolizine-2-carbonyl)-amino]-propionic acid trifluoroacetic acid salt] | 4000 | 23000 |
